Reference: the supplement of paper PMC10307832

Assays:
Test in all cases: relative viability (nuclei count vs DMSO), 5 days (fraction); higher = more cells survive
OSI-027 + Trametinib = compound: COc1cccc2cc(-c3nc([C@H]4CC[C@H](C(=O)O)CC4)n4ncnc(N)c34)[nH]c12 [OSI-027] + CC(=O)Nc1cccc(-n2c(=O)n(C3CC3)c(=O)c3c(Nc4ccc(I)cc4F)n(C)c(=O)c(C)c32)c1 [Trametinib] (partner 0.02 µM)
In short: (§1)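 Five library-drug doses in √10 steps were combined with a fixed anchor-drug dose, or a single drug was given alone, by pin tool to lung cancer cell lines in 1536-well plates the day after seeding. Nuclei were stained and counted after 5 days. Relative viability is the nuclei count in treated wells over that in vehicle wells, taken as the median of duplicate plates.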

Vemurafenib + Foretinib = compound: CCCS(=O)(=O)Nc1ccc(F)c(C(=O)c2c[nH]c3ncc(-c4ccc(Cl)cc4)cc23)c1F [Vemurafenib] + COc1cc2c(Oc3ccc(NC(=O)C4(C(=O)Nc5ccc(F)cc5)CC4)cc3F)ccnc2cc1OCCCN1CCOCC1 [Foretinib] (partner 0.25 µM)
In short: as §1

OSI-027 + AZD7762 = compound: COc1cccc2cc(-c3nc([C@H]4CC[C@H](C(=O)O)CC4)n4ncnc(N)c34)[nH]c12 [OSI-027] + NC(=O)Nc1cc(-c2cccc(F)c2)sc1C(=O)N[C@H]1CCCNC1 [AZD7762] (partner 0.2 µM)
In short: as §1

OSI-027 + Luminespib = compound: COc1cccc2cc(-c3nc([C@H]4CC[C@H](C(=O)O)CC4)n4ncnc(N)c34)[nH]c12 [OSI-027] + CCNC(=O)c1noc(-c2cc(C(C)C)c(O)cc2O)c1-c1ccc(CN2CCOCC2)cc1 [Luminespib] (partner 0.01 µM)
In short: as §1

Cell Line | relative viability (OSI-027 + Trametinib; first compound 0.01 µM) | relative viability (OSI-027 + Trametinib; first compound 0.03162 µM) | relative viability (OSI-027 + Trametinib; first compound 0.1 µM) | relative viability (OSI-027 + Trametinib; first compound 0.3162 µM) | relative viability (OSI-027 + Trametinib; first compound 1 µM) | relative viability (Vemurafenib + Foretinib; first compound 0.03162 µM) | relative viability (Vemurafenib + Foretinib; first compound 0.1 µM) | relative viability (Vemurafenib + Foretinib; first compound 0.3162 µM) | relative viability (Vemurafenib + Foretinib; first compound 1 µM) | relative viability (OSI-027 + AZD7762; first compound 0.01 µM) | relative viability (OSI-027 + AZD7762; first compound 0.03162 µM) | relative viability (OSI-027 + AZD7762; first compound 0.1 µM) | relative viability (OSI-027 + AZD7762; first compound 0.3162 µM) | relative viability (OSI-027 + AZD7762; first compound 1 µM) | relative viability (OSI-027 + Luminespib; first compound 0.01 µM) | relative viability (OSI-027 + Luminespib; first compound 0.03162 µM) | relative viability (OSI-027 + Luminespib; first compound 0.1 µM) | relative viability (OSI-027 + Luminespib; first compound 0.3162 µM) | relative viability (OSI-027 + Luminespib; first compound 1 µM)
NCI-H1755 | 0.738 | 0.759 | 0.761 | 0.654 | 0.501 | 0.882 | 0.889 | 0.891 | 0.832 | 0.442 | 0.432 | 0.574 | 0.507 | 0.396 | 0.577 | 0.533 | 0.369 | 0.382 | 0.416
CAL-12T | 0.315 | 0.334 | 0.336 | 0.235 | 0.242 | 1.15 | 0.828 | 1.33 | 1.09 | 0.626 | 0.741 | 0.603 | 0.668 | 0.585 | 0.342 | 0.533 | 0.589 | 0.0997 | 0.117
SW 900 | 0.933 | 0.866 | 0.789 | 0.712 | 0.608 | 1.11 | 0.693 | 0.801 | 0.924 | 0.669 | 0.575 | 0.499 | 0.508 | 0.402 | – | 0.153 | 0.169 | 0.171 | 0.163
NCI-H1734 | 0.667 | 0.687 | 0.659 | 0.586 | 0.42 | 0.81 | 0.82 | 0.779 | 0.763 | 0.619 | 0.532 | 0.537 | 0.408 | 0.251 | 0.174 | 0.179 | 0.203 | 0.166 | 0.178
NCI-H358 | 0.114 | 0.129 | 0.123 | 0.112 | 0.117 | 0.638 | 0.494 | 0.886 | 0.858 | 0.544 | 0.472 | 0.543 | 0.56 | 0.347 | 0.384 | 0.295 | 0.468 | 0.41 | 0.311
NCI-H650 | 0.915 | 1.11 | 0.909 | 0.851 | 0.454 | 1.01 | 0.983 | – | 0.879 | 0.925 | 1.06 | 0.955 | 0.902 | 0.375 | 0.757 | 0.731 | 0.749 | 0.648 | 0.381
BEN | 0.9 | 0.787 | 0.709 | 0.527 | 0.505 | 0.534 | 0.575 | – | 0.621 | 0.698 | 0.604 | 0.435 | 0.464 | 0.463 | 0.327 | 0.467 | 0.307 | 0.187 | 0.221
NCI-H647 | 0.367 | 0.395 | 0.438 | 0.385 | 0.236 | 1.12 | 1.11 | 1.34 | 1.02 | 0.402 | 0.558 | 0.362 | 0.314 | 0.348 | 0.153 | 0.146 | 0.145 | 0.149 | 0.0965
NCI-H2347 | 0.29 | 0.25 | 0.268 | 0.278 | 0.205 | 0.662 | 0.91 | 0.843 | 0.811 | 0.683 | 0.733 | 0.756 | 0.595 | 0.299 | 0.283 | 0.339 | 0.604 | 0.279 | 0.288
LC-2-ad | 0.903 | 0.872 | 0.945 | 0.927 | 0.694 | 0.859 | 0.705 | – | 1.01 | 0.835 | 0.77 | 0.879 | 0.894 | 0.615 | 1.05 | 1.1 | 0.862 | 0.874 | 0.659
NCI-H838 | 0.455 | 0.532 | 0.436 | 0.317 | 0.206 | 0.964 | 1.05 | – | 1.07 | 0.923 | 0.838 | 0.855 | 0.806 | 0.801 | 0.281 | 0.338 | 0.336 | 0.192 | 0.195
EMC-BAC-2 | 0.857 | 0.927 | 0.816 | 0.797 | 0.503 | 1.06 | 0.862 | 0.832 | 1.03 | 1.05 | 1.14 | 0.833 | 0.791 | 0.63 | 1.24 | 1.17 | 0.95 | 0.864 | 0.379
NCI-H3122 | 0.273 | 0.238 | 0.178 | 0.191 | 0.097 | 0.992 | 0.957 | 1.02 | 1.07 | 1.06 | 1.09 | 0.995 | 0.946 | 0.486 | 0.0994 | 0.0843 | 0.054 | 0.0869 | 0.0772
NCI-H1395 | 1.1 | 1.02 | 0.957 | 0.863 | 0.648 | 1.02 | 0.976 | – | 1.01 | 0.316 | 0.398 | 0.396 | 0.352 | 0.386 | 0.717 | 0.556 | 0.621 | 0.546 | 0.439
ChaGo-K-1 | 0.919 | 0.903 | 0.833 | 0.882 | 0.661 | 0.885 | 0.938 | 0.85 | 0.901 | 0.912 | 0.902 | 0.936 | 0.836 | 0.756 | 0.574 | 0.648 | 0.586 | 0.355 | 0.31
NCI-H1944 | 0.379 | 0.399 | 0.405 | 0.355 | 0.298 | 0.868 | 0.614 | 0.879 | 0.837 | 0.611 | 0.43 | 0.648 | 0.56 | 0.371 | 0.856 | 0.82 | 0.537 | 0.534 | 0.273
H3255 | 0.527 | 0.594 | 0.514 | 0.476 | 0.414 | 0.945 | – | 0.827 | 0.96 | 0.888 | 0.958 | 0.714 | 0.832 | 0.613 | 0.74 | 0.871 | 0.775 | 0.817 | 0.459
